Here are results for three compounds from patent US20080121012A1, “Electrode Calibration” (priority 2004, published 2008).

The nature of data set [1]: Detection of CO release using the myoglobin assay (conversion of deoxy-Mb to MbCO). The class given is physicochemical. The procedure: The release of CO from CORM-A1 (Na2[H3BCOO]) was assessed spectrophotometrically by measuring the conversion of deoxymyoglobin (deoxy-Mb) to carbonmonoxy myoglobin (MbCO) in a manner previously reported (refs. 3, 4, 5). A small aliquot of CORM-A1 (60 μM final concentration) was added to 1 ml deoxy-Mb (≈53 μM) in phosphate buffer and changes in the Mb spectra were recorded over time. The amount of MbCO formed was quantified by measuring the absorbance at 540 nm (extinction coefficient=[…]). In order to examine the effect of pH on the rate of CO liberation from CORM-A1, experiments were conducted using solutions of myoglobin in 0.04 M phosphate buffer prepared at different pHs (7.4, 7.0, 6.5 and 5.5). The amount of MbCO formed was plotted over time and the half-life of CORM-A1 at different pHs and temperatures was calculated from the fitted curves.
The conversion of deoxy-Mb to MbCO can be followed over time by measuring the changes in the absorption spectra of this protein. […] The Mb appears to be fully saturated 2 h after addition of CORM-A1 (see curve with filled diamonds in FIG. 1A). […] Specifically, from the fitted curves shown in FIG. 2A we can calculate that the half-lives of CORM-A1 at 37° C. are as follows: 21 min at pH=7.4; 7.1 min at pH=7.0; 3.3 min at pH=6.5; and 2.5 min at pH=5.5.

Data set [2] in a line: Detection of CO release using an amperometric CO sensor. The conditions noted are these: 20 μM; for dissociation rate constant of CO / half-life: 37° C. The class given is physicochemical. From the text: The release of CO from CORM-A1 was also detected using a prototype electrode purchased from World Precision Instrument (Stevenage, Herts, UK). This CO electrode is a membrane-covered amperometric sensor which has been designed on a basic operating principle similar to the nitric oxide (NO) sensor (ISO-NOP series, World Precision Instruments). The CO sensor can be connected to the ISO-NO Mark II meter for detection of the current signals providing that the poise potential is set to a different value (900 mV for CO as opposed to 860 mV for NO). In principle, CO diffuses through the gas permeable membrane and is then oxidized to CO2 on the working electrode. This oxidation creates a current whose magnitude can be related directly to the concentration of CO in solution. The CO sensor was used to generate standard curves and calculate the rates of CO release from CORM-A1 at different pHs and temperatures. The electrode was immersed into the solutions at different pHs and equilibrated for 30 min prior to addition of CORM-A1. For the experiments conducted at 37, 30, 25 and 20° C., the solutions were maintained at the desired temperature using a Grant W6 thermostat (Cambridge, England).
CORM-A1 was also tested for its ability to liberate CO using an amperometric electrode sensitive to CO. […] A standard curve generated at pH=5.5 using CORM-A1 in a range between 10 and 50 μM indicated a good linear correlation (R^2=0.998) between the concentrations used and the electrode response (FIG. 3B). Therefore, a concentration of 20 μM CORM-A1 was then used to calculate the rate of CO dissociation from CORM-A1 at different pHs and temperatures. […] Specifically, from the curves shown in FIG. 3D, we can calculate that the initial rate of CO release at pH=5.5 is 6.84 μM/min at 37° C., 3.83 μM/min at 30° C., 2.16 μM/min at 25° C. and 1.22 μM/min at 20° C. Thus, the spontaneous liberation of CO from CORM-A1 in aqueous solutions is both pH- and temperature-dependent.

The conditions of data set [3]: cited from earlier work.

In general, half-life refers to the time in which the quantity being followed falls by half. Low readings indicate rapid decline, high ones slow decline.

For the compound sodium boranocarbonate [CORM-A1], in data set [1] (60 μM, 37° C., pH=7.4), the “time until Mb is fully saturated with CO” value stood at 2 h. Further, in data set [1] (pH=5.5, standard curve), the “mole of CO formed per mole of compound” value is recorded as “one”. Besides, the “dissociation rate constant of CO” value in data set [2] (pH=4.0) turned out to be 0.011 s⁻¹; in data set [2] (pH=5.5), 0.0058 s⁻¹; in data set [2] (pH=7.4), 0.00055 s⁻¹. Also, the half-life turned out to be 1.96 min in data set [2] (pH=5.5) and 21.06 min in data set [2] (pH=7.4). Also, the “initial rate of CO release” value in data set [2] (pH=5.5, 20° C.) was found to be 1.22 µM/min; in data set [2] (pH=5.5, 25° C.) it was 2.16 µM/min; in data set [2] (pH=5.5, 30° C.), 3.83 µM/min; in data set [2] (pH=5.5, 37° C.) it was 6.84 µM/min.
With `[C-]#[O+].[C-]#[O+].[C-]#[O+].[C-]#[O+].[C-]#[O+].[C-]#[O+].[Cl][Ru][Cl].[Cl][Ru][Cl]` [CORM-2, tricarbonyldichlororuthenium(II) dimer], the solubility result in data set [3] is on record as “soluble only in organic solvents”.
Consider `[C-]#[O+].[C-]#[O+].[C-]#[O+].[C-]#[O+].[C-]#[O+].[C-]#[O+].[C-]#[O+].[C-]#[O+].[C-]#[O+].[C-]#[O+].[Mn].[Mn]` [CORM-1, manganese decacarbonyl], for which the solubility result in data set [3] is given as “soluble only in organic solvents”.
